Measured values as given in paper PMC6616128, “Liquiritin, as a Natural Inhibitor of AKR1C1, Could Interfere With the Progesterone Metabolism” (Frontiers in Physiology, 2019).
Read-outs that look alike come from different tables or passages of the source.

Molecular target: T1, AKR1C1 (Homo sapiens, UniProt Q04828)
T1 sequence (Q04828 1-323): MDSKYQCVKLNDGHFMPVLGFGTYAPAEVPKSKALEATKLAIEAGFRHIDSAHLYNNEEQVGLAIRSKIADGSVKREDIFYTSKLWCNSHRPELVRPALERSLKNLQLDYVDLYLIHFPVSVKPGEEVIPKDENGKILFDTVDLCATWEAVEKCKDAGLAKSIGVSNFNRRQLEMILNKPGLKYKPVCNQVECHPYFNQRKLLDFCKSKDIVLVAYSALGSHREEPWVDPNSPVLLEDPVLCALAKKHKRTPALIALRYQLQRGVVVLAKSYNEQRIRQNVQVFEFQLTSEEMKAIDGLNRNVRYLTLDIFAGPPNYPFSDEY
Assay: Enzyme activity (NADPH) assay with s-tetralol, recombinant GST-AKR1C1;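 also: GST-fused AKR1C1 expressed in E. coli and purified by glutathione affinity, control wells received DMSO instead of compound, duplicate samples from a single experiment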
Type: biochemical
Design: made in house; host or cells: Escherichia coli JM109
Details: for enzyme activity: CON 192.295568; for remaining activity at 2 µM: read-out: ratio (activity relative to CON)

[1] = 2 μM compound, Supplementary Table 1, CON 0.0122
[2] = 2 μM compound, Supplementary Table 1
[3] = 2 μM compound, Supplementary Table 1, CON = 1
[4] = 2 μM compound, Supplementary Table 1, read-out: % inhibition

Method: GST-tagged recombinant AKR1C isoforms expressed JM109 was grown in Luria-Bertani broth (100 μg⋅ml-1 ampicillin, pH = 7.0) at 37°C with orbital shaking at 220 rpm. When cells achieved an OD600 nm between 0.4 and 0.6, 0.3 mM final concentration of isopropyl β-D-1-thiogalactopyranoside (IPTG) was added to the cultures and incubated for an additional 12 h at 25°C. Cells were harvested by centrifugation at 8000 g for 10 min, and the cell pellets were stored at -80°C for storage. The pellets were resuspended in 1 × PBS, pH = 7.4 and lysed by ultrasonication at ice-cold temperature using an UH-03 union instrument. The purification of glutathione-S-transferase (GST)-fusion AKR1C1, AKR1C2, and AKR1C3 were then carried out using ÄKTA systems from GE Healthcare as described in Handbook. The recombinant proteins were eluted in 50 mM Tris–HCl (pH = 8.0) with 20 mM reduced glutathione, fresh preparedly. Protein concentrations were determined using the Bradford protein assay kit. All proteins were aliquoted and stored at -80°C containing 20% glycerol.
To screen for the indicated inhibitor, the assay mixture was added with additional DMSO or 2 μM compounds. […] The inhibition patterns were determined by fitting initial velocity and inhibitor concentration into inhibition models using Graphpad Prism 6.0. All inhibition data were obtained from single experiments, with samples conducted in duplicate.
Firstly, we overexpressed recombinant human AKR1C in E. coli in the form of a GST-fusion protein, and then purified it by affinity chromatography on glutathione-Sepharose.
To screen for the inhibitors of AKR1C1, we developed a readily accessible indirect NADPH generating-based assay that can be used for high-throughput inhibitors screening. […] Wells were included containing enzyme and no inhibitor or 2 μM inhibitor.

O=c1c(O)c(-c2ccccc2)oc2cc(O)cc(O)c12 [3,5,7-Trihydroxyflavone]
slope [1]: 0.00928
enzyme activity [2]: 146.2707 nmol/min/mg
remaining activity at 2 µM [3]: 76.1%
inhibition at 2 µM [4]: 23.9%

COc1c2ccoc2cc2oc(=O)ccc12 [5-Methoxypsoralen]
slope [1]: 0.0121
enzyme activity [2]: 190.1339 nmol/min/mg
remaining activity at 2 µM [3]: 98.9%
inhibition at 2 µM [4]: 1.12%

O=C(O[C@@H]1Cc2c(O)cc(O)cc2O[C@@H]1c1ccc(O)c(O)c1)c1cc(O)c(O)c(O)c1 [(−)-Epicatechin gallate]
% inhibition [2]: 42.46%
slope [1]: 0.00702
enzyme activity [2]: 110.6488 nmol/min/mg
ratio (activity relative to CON) [3]: 0.5754

O=C(O[C@@H]1Cc2c(O)cc(O)cc2O[C@@H]1c1cc(O)c(O)c(O)c1)c1cc(O)c(O)c(O)c1 [(−)-Epigallocatechin gallate]
slope [1]: 0.0121
enzyme activity [2]: 191.3949 nmol/min/mg
remaining activity at 2 µM [3]: 99.5%
inhibition at 2 µM [4]: 0.47%

Oc1cc(O)c2c(c1)O[C@H](c1cc(O)c(O)c(O)c1)[C@H](O)C2 [(−)-Epigallocatechin]
% inhibition [2]: -7.17%
slope [1]: 0.0131
enzyme activity [2]: 206.076 nmol/min/mg
ratio (activity relative to CON) [3]: 1.0717

C[C@@H]1O[C@@H](O[C@@H]2[C@@H](O)[C@H](OCCc3ccc(O)c(O)c3)O[C@H](CO)[C@H]2OC(=O)/C=C/c2ccc(O)c(O)c2)[C@H](O)[C@H](O)[C@H]1O [Acteoside]
slope [1]: 0.0123
enzyme activity [2]: 194.5022 nmol/min/mg
remaining activity at 2 µM [3]: 101%
inhibition at 2 µM [4]: -1.15%

C[C@]12C[C@@H](O)[C@@H]3C[C@@]1(O[C@@H]1O[C@H](CO)[C@@H](O)[C@H](O)[C@H]1O)[C@@]3(COC(=O)c1ccccc1)C(=O)O2 [Albiflorin]
% inhibition [2]: -5.5%
slope [1]: 0.0129
enzyme activity [2]: 202.8786 nmol/min/mg
ratio (activity relative to CON) [3]: 1.055

COc1cc(C[C@H]2C(=O)OC[C@@H]2Cc2ccc(OC)c(OC)c2)ccc1O [Arctigenin]
slope [1]: 0.0129
enzyme activity [2]: 203.0137 nmol/min/mg
remaining activity at 2 µM [3]: 106%
inhibition at 2 µM [4]: -5.57%

O=c1c(O[C@@H]2O[C@H](CO)[C@@H](O)[C@H](O)[C@H]2O)c(-c2ccc(O)cc2)oc2cc(O)cc(O)c12 [Astragalin]
slope [1]: 0.007614
enzyme activity [2]: 120.0159 nmol/min/mg
remaining activity at 2 µM [3]: 62.4%
inhibition at 2 µM [4]: 37.6%

COc1cc2c(cc1CC=C(C)C)C(=O)C[C@@H](c1ccc(O)cc1)O2 [Bavachinin A]
slope [1]: 0.009203
enzyme activity [2]: 145.0548 nmol/min/mg
remaining activity at 2 µM [3]: 75.4%
inhibition at 2 µM [4]: 24.6%

CC(C)(C)[C@]1(O)CC2OC(=O)CC23C(=O)OC2OC(=O)[C@H](O)C231 (some centres unmarked) [Bilobalide]
inhibition at 2 µM: 37.5%
slope: 0.007623
enzyme activity [2]: 120.151 nmol/min/mg
remaining activity at 2 µM: 62.5%

O=C(/C=C/c1ccc(O)cc1)CC(=O)/C=C/c1ccc(O)cc1 [Bisdemethoxycurcumin]
slope [1]: 0.0114
enzyme activity [2]: 180.2715 nmol/min/mg
remaining activity at 2 µM [3]: 93.8%
inhibition at 2 µM [4]: 6.25%

COc1ccc(-c2coc3cc(O)ccc3c2=O)cc1O [Calycosin]
slope [1]: 0.0116
enzyme activity [2]: 183.0185 nmol/min/mg
remaining activity at 2 µM [3]: 95.2%
inhibition at 2 µM [4]: 4.82%

C=C1C(=O)O[C@@H]2/C=C(\C)CC/C=C(\C)CC[C@@H]12 [Costundide]
% inhibition [2]: 40.47%
slope [1]: 0.007263
enzyme activity [2]: 114.4767 nmol/min/mg
ratio (activity relative to CON) [3]: 0.5953

COc1cc(/C=C/C(=O)CC(=O)/C=C/c2ccc(O)c(OC)c2)ccc1O [Curcumin]
slope [1]: 0.006283
enzyme activity [2]: 99.03 nmol/min/mg
remaining activity at 2 µM [3]: 51.5%
inhibition at 2 µM [4]: 48.5%

O=c1c(-c2ccc(O)cc2)coc2cc(O)ccc12 [Daidzein]
slope [1]: 0.007957
enzyme activity [2]: 125.4199 nmol/min/mg
remaining activity at 2 µM [3]: 65.2%
inhibition at 2 µM [4]: 34.8%

O=c1c(-c2ccc(O)cc2)coc2cc(O[C@@H]3O[C@H](CO)[C@@H](O)[C@H](O)[C@H]3O)ccc12 [Daidzin]
slope [1]: 0.013
enzyme activity [2]: 204.9952 nmol/min/mg
remaining activity at 2 µM [3]: 107%
inhibition at 2 µM [4]: -6.6%

C[C@@H]1CC[C@@]2(OC1)O[C@H]1C[C@H]3[C@@H]4CC=C5C[C@@H](O[C@@H]6O[C@H](CO)[C@@H](O[C@@H]7O[C@@H](C)[C@H](O)[C@@H](O)[C@H]7O)[C@H](O)[C@H]6O[C@@H]6O[C@@H](C)[C@H](O)[C@@H](O)[C@H]6O)CC[C@]5(C)[C@H]4CC[C@]3(C)[C@H]1[C@@H]2C [Dioscin]
slope [1]: 0.0134
enzyme activity [2]: 211.8854 nmol/min/mg
remaining activity at 2 µM [3]: 110%
inhibition at 2 µM [4]: -10.2%

COc1cc(O)c2c(c1)C(=O)c1cc(C)cc(O)c1C2=O [Emodin-3-methyl ether]
% inhibition [2]: -4.57%
slope [1]: 0.0128
enzyme activity [2]: 201.0772 nmol/min/mg
ratio (activity relative to CON) [3]: 1.0457

Oc1cc(O)c2c(c1)O[C@H](c1ccc(O)c(O)c1)[C@H](O)C2 [Epicatechin]
slope [1]: 0.0136
enzyme activity [2]: 214.5874 nmol/min/mg
remaining activity at 2 µM [3]: 112%
inhibition at 2 µM [4]: -11.6%

Oc1cc(O)c2c(c1)O[C@H](c1cc(O)c(O)c(O)c1)[C@H](O)C2 [Epigallocatechin]
slope [1]: 0.0131
enzyme activity [2]: 206.6164 nmol/min/mg
remaining activity at 2 µM [3]: 107%
inhibition at 2 µM [4]: -7.45%

COc1ccc2cc1Oc1ccc(cc1)C[C@H]1c3cc(c(OC)cc3CCN1C)Oc1c(O)c(OC)cc3c1[C@H](C2)N(C)CC3 [Fangchinoline]
slope [1]: 0.0139
enzyme activity [2]: 219.4962 nmol/min/mg
remaining activity at 2 µM [3]: 114%
inhibition at 2 µM [4]: -14.2%

O=c1c(-c2ccc(O)cc2)coc2cc(O[C@@H]3O[C@H](CO)[C@@H](O)[C@H](O)[C@H]3O)cc(O)c12 [Genistin]
slope [1]: 0.0129
enzyme activity [2]: 203.1488 nmol/min/mg
remaining activity at 2 µM [3]: 106%
inhibition at 2 µM [4]: -5.64%

C[C@@H]1C(=O)O[C@H]2C[C@@]34[C@H]5C[C@@H](C(C)(C)C)[C@]36[C@@H](OC(=O)[C@@H]6O)O[C@@]4(C(=O)O5)[C@]21O [Ginkgolide A]
slope [1]: 0.008406
enzyme activity [2]: 132.4903 nmol/min/mg
remaining activity at 2 µM [3]: 68.9%
inhibition at 2 µM [4]: 31.1%

CC(C)=CCC[C@](C)(O[C@@H]1O[C@H](CO)[C@@H](O)[C@H](O)[C@H]1O)[C@H]1CC[C@]2(C)[C@@H]1[C@H](O)C[C@@H]1[C@@]3(C)CC[C@H](O)C(C)(C)[C@@H]3CC[C@]12C [Ginsenoside CK]
% inhibition [2]: -0.56%
slope [1]: 0.0123
enzyme activity [2]: 193.3764 nmol/min/mg
ratio (activity relative to CON) [3]: 1.0056

CC1(C)C=Cc2c(ccc3c2OC[C@@H](c2ccc(O)cc2O)C3)O1 [Glabridin]
slope [1]: 0.0136
enzyme activity [2]: 215.1279 nmol/min/mg
remaining activity at 2 µM [3]: 112%
inhibition at 2 µM [4]: -11.9%

COc1cc2c(=O)c(-c3ccc(O)cc3)coc2cc1O [Glycitein]
slope [1]: 0.0086
enzyme activity [2]: 135.5526 nmol/min/mg
remaining activity at 2 µM [3]: 70.5%
inhibition at 2 µM [4]: 29.5%

COc1cc2c(=O)c(-c3ccc(O)cc3)coc2cc1O[C@@H]1O[C@H](CO)[C@@H](O)[C@H](O)[C@H]1O [Glycitin]
% inhibition [2]: 64.26%
slope [1]: 0.00436
enzyme activity [2]: 68.722 nmol/min/mg
ratio (activity relative to CON) [3]: 0.3574

O=c1c(O[C@@H]2O[C@H](CO)[C@H](O)[C@H](O)[C@H]2O)c(-c2ccc(O)c(O)c2)oc2cc(O)cc(O)c12 [Hyperoside]
slope [1]: 0.0123
enzyme activity [2]: 193.4665 nmol/min/mg
remaining activity at 2 µM [3]: 101%
inhibition at 2 µM [4]: -0.61%

CC(C)=CCOc1c2occc2cc2ccc(=O)oc12 [Imperatorin]
slope [1]: 0.0117
enzyme activity [2]: 184.7298 nmol/min/mg
remaining activity at 2 µM [3]: 96.1%
inhibition at 2 µM [4]: 3.93%

CC(C)=CCOc1c2ccoc2cc2oc(=O)ccc12 [Isoimperatorin]
slope [1]: 0.0108
enzyme activity [2]: 170.1838 nmol/min/mg
remaining activity at 2 µM [3]: 88.5%
inhibition at 2 µM [4]: 11.5%

O=c1c(O[C@@H]2O[C@H](CO)[C@@H](O)[C@H](O)[C@H]2O)c(-c2ccc(O)c(O)c2)oc2cc(O)cc(O)c12 [Isoquercitrin]
slope [1]: 0.007797
enzyme activity [2]: 122.898 nmol/min/mg
remaining activity at 2 µM [3]: 63.9%
inhibition at 2 µM [4]: 36.1%

COc1cc(-c2oc3cc(O)cc(O)c3c(=O)c2O)ccc1O [Isorhamnetin]
slope [1]: 0.0125
enzyme activity [2]: 197.0241 nmol/min/mg
remaining activity at 2 µM [3]: 102%
inhibition at 2 µM [4]: -2.46%

COc1cc2c(cc1O)CC[n+]1cc3c(OC)c(OC)ccc3cc1-2.[Cl-] [Jatrorrhizine Hydrochloride]
% inhibition [2]: -4.38%
slope [1]: 0.0127
enzyme activity [2]: 200.7169 nmol/min/mg
ratio (activity relative to CON) [3]: 1.0438

COc1ccc(-c2oc3cc(O)cc(O)c3c(=O)c2O)cc1 [Kaempferide]
slope [1]: 0.0115
enzyme activity [2]: 181.9828 nmol/min/mg
remaining activity at 2 µM [3]: 94.6%
inhibition at 2 µM [4]: 5.36%
